Experimental data reported in ChEMBL document CHEMBL4359925, “Rational discovery of a highly novel and selective mTOR inhibitor” (Bioorg Med Chem Lett, 2019).
pIC50: −log10 of the molar value. Calls of active or inactive are those of the source. The rule behind the calls is not given here.

What was measured:
A2780 = test: Antiproliferative activity against human A2780; type: functional, cell-based
[1] = Half-life in mouse at 10.4 mg/kg, iv; type: ADME, organism-based; settings: in vivo
[2] = Volume of distribution at steady state in dog at 0.2 mg/kg, iv; type: ADME, organism-based, Canis lupus familiaris; settings: in vivo, read-out: Vdss
[3] = biological target: Serine/threonine-protein kinase mTOR (Homo sapiens, UniProt P42345); test: Inhibition of human mTOR measured after 30 mins in presence of ATP by Lanthascreen TR-FRET assay
[4] = Half-life in rat at 0.8 mg/kg, iv; type: ADME, organism-based; settings: in vivo
[5] = Tmax in rat at 160 mg/kg, po; type: ADME, organism-based; settings: in vivo
[6] = Cmax in rat at 95 mg/kg, po; type: ADME, organism-based; parameters: dose 95 mg/kg, route oral; settings: in vivo
[7] = Tmax in rat at 83 mg/kg, po; type: ADME, organism-based; settings: in vivo
[8] = Half-life in mouse at 26 mg/kg, po; type: ADME, organism-based; settings: in vivo
[9] = Half-life in dog at 0.2 mg/kg, iv; type: ADME, organism-based, Canis lupus familiaris; settings: in vivo
[10] = Clearance in mouse at 2.8 mg/kg, iv; type: ADME, organism-based; settings: in vivo
[11] = Half-life in rat at 4.1 mg/kg, po; type: ADME, organism-based; settings: in vivo
[12] = Cmax in rat at 160 mg/kg, po; type: ADME, organism-based; parameters: dose 160 mg/kg, route oral; settings: in vivo
[13] = Cmax in rat at 4.9 mg/kg, po; type: ADME, organism-based; parameters: dose 4.9 mg/kg, route oral; settings: in vivo
[14] = Tmax in rat at 93 mg/kg, po; type: ADME, organism-based; settings: in vivo
A549 [15] = test: Synergistic antiproliferative activity against human A549 cells harboring KRAS G12S mutant in presence of gemcitabine; type: functional, cell-based
NCI-H460 [16] = test: Synergistic antiproliferative activity against human H460 cells harboring LKB1 mutant in presence of erlotinib; type: functional, cell-based
[17] = Cmax in mouse at 10.4 mg/kg, iv; type: ADME, organism-based; parameters: dose 10.4 mg/kg, route intravenous; settings: in vivo
[18] = Volume of distribution at steady state in rat at 0.8 mg/kg, iv; type: ADME, organism-based; settings: in vivo, read-out: Vdss
NCI-H1395 [19] = test: Additive antiproliferative activity against human NCI-H1395 cells harboring BRAF G469A in presence of erlotinib; type: functional, cell-based
NCI-H929 = test: Antiproliferative activity against human NCI-H929 cells; type: functional, cell-based
[20] = Cmax in mouse at 8.7 mg/kg, po; type: ADME, organism-based; parameters: dose 8.7 mg/kg, route oral; settings: in vivo
HCT-116 = test: Antiproliferative activity against human HCT116; type: functional, cell-based
NCI-H1395 [21] = test: Additive antiproliferative activity against human NCI-H1395 cells harboring LKB1 mutant in presence of gemcitabine; type: functional, cell-based
[22] = Cmax in mouse at 26 mg/kg, po; type: ADME, organism-based; parameters: dose 26 mg/kg, route oral; settings: in vivo
DU-145 = test: Antiproliferative activity against human DU145 cells; type: functional, cell-based
[23] = Cmax in rat at 3 mg/kg, po; type: ADME, organism-based; parameters: dose 3 mg/kg, route oral; settings: in vivo
A549 [24] = test: Synergistic antiproliferative activity against human A549 cells harboring LKB1 mutant in presence of gemcitabine; type: functional, cell-based
[25] = Tmax in mouse at 8.7 mg/kg, po; type: ADME, organism-based; settings: in vivo
NCI-H1395 [26] = test: Additive antiproliferative activity against human NCI-H1395 cells harboring BRAF G469A in presence of gemcitabine; type: functional, cell-based
NCI-H292 = test: Additive antiproliferative activity against human NCI-H292 cells in presence of gemcitabine; type: functional, cell-based
[27] = Tmax in dog at 0.45 mg/kg, po; type: ADME, organism-based, Canis lupus familiaris; settings: in vivo
[28] = Tmax in rat at 31 mg/kg, po; type: ADME, organism-based; settings: in vivo
NCI-H1395 [29] = test: Antiproliferative activity against human NCI-H1395 cells; type: functional, cell-based
NCI-H1975 = test: Additive antiproliferative activity against human NCI-H1975 cells harboring EGFR […]/T790M mutant in presence of erlotinib; type: functional, cell-based
BT-474 = test: Antiproliferative activity against human BT474; type: functional, cell-based
[30] = Tmax in rat at 4.9 mg/kg, po; type: ADME, organism-based; settings: in vivo
[31] = Half-life in rat at 4.9 mg/kg, po; type: ADME, organism-based; settings: in vivo
[32] = Volume of distribution at steady state in mouse at 2.8 mg/kg, iv; type: ADME, organism-based; settings: in vivo, read-out: Vdss
NCI-H460 [33] = test: Synergistic antiproliferative activity against human H460 cells harboring KRAS […] mutant in presence of erlotinib
[34] = Half-life in dog at 30 mg/kg, po; type: ADME, organism-based, Canis lupus familiaris; settings: in vivo
[35] = Clearance in dog at 0.2 mg/kg, iv; type: ADME, organism-based, Canis lupus familiaris; settings: in vivo
MIA PaCa-2 = test: Antiproliferative activity against human MIAPaCa2 cells; type: functional, cell-based
[36] = Cmax in rat at 93 mg/kg, po; type: ADME, organism-based; parameters: dose 93 mg/kg, route oral; settings: in vivo
NCI-H1650 = test: Antiproliferative activity against human NCI-H1650 cells; type: functional, cell-based
[37] = Half-life in rat at 31 mg/kg, po; type: ADME, organism-based; settings: in vivo
BXPC-3 = test: Antiproliferative activity against human BxPC3 cells; type: functional, cell-based
[38] = Cmax in rat at 4.1 mg/kg, po; type: ADME, organism-based; parameters: dose 4.1 mg/kg, route oral; settings: in vivo

In the case of CC(F)(F)CN1C(=O)[C@]2(C)COCCN2c2nc(-c3ccc(NC(=O)NC4CC4)cc3)ncc21, the Activity (A2780) was “Active”, the half-life [1] was 2 h and the Vd [2] was 1.12 L/kg. For the same compound, the pIC50 [3] was 7.90, the half-life [4] was 1.8 h and the Tmax [5] was 10 h. It also gave a Cmax [6] of 2610 ng/mL, a Tmax [7] of 14 h and a half-life [8] of 9.2 h. The half-life [9] was 7.5 h, the clearance [10] was 8.5 mL/min/kg and the half-life [11] was 15.2 h. It also gave a Cmax [12] of 7700 ng/mL, a Cmax [13] of 1190 ng/mL and a Tmax [14] of 8.7 h. The Activity (A549 [15]) was “Active”, the Activity (NCI-H460 [16]) was “Active” and the Cmax [17] was 17700 ng/mL. For the same compound, the Vd [18] was 0.951 L/kg, the Activity (NCI-H1395 [19]) was “Active” and the Activity (NCI-H929) was “Active”. The Cmax [20] was 5370 ng/mL, the Activity (HCT-116) was “Active” and the Activity (NCI-H1395 [21]) was “Active”. For the same compound, the Cmax [22] was 11100 ng/mL, the Activity (DU-145) was “Active” and the Cmax [23] was 176 ng/mL. For the same compound, the Activity (A549 [24]) was “Active”, the Tmax [25] was 4 h and the Activity (NCI-H1395 [26]) was “Active”. The Activity (NCI-H292) was “Active”, the Tmax [27] was 4 h and the Tmax [28] was 8 to 19.3 h. The Activity (NCI-H1395 [29]) was “Active”, the Activity (NCI-H1975) was “Active” and the Activity (BT-474) was “Active”. It also gave a Tmax [30] of 3.3 h, a half-life [31] of 5.5 h and a Vd [32] of 1.66 L/kg. For the same compound, the Activity (NCI-H460 [33]) was “Active”, the half-life [34] was 9.2 h and the clearance [35] was 3.3 mL/min/kg. For the same compound, the Activity (MIA PaCa-2) was “Active”, the Cmax [36] was 7220 ng/mL and the Activity (NCI-H1650) was “Active”. The half-life [37] was 8.7 to 18.6 h, the Activity (BXPC-3) was “Active” and the Cmax [38] was 150 ng/mL.
